Activity calls are given as the source filed them.
Columns and labels:
[1] = NIH-3T3 fibroblast cytotoxicity, dose response, cytotoxicity control, cell-based, fluorescence, Alamar Blue, secondary assay (AID 2327); assay type: functional;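 further: NIH-3T3 mouse fibroblasts cultured with fluconazole at 8 µg/mL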
[2] = tested on: HEK293; experiment: NOD1 signaling inhibitors, primary screen, cell-based, luminescence, uHTS (AID 1578); assay type: functional; conditions: Homo sapiens
[3] = tested on: HEK293; experiment: cells; assay type: functional, cell-based; conditions: Homo sapiens
[4] = target: Beta-galactosidase (Escherichia coli, UniProt Q8VNN2); experiment: PubChem AID 485352; assay type: functional
Chain of Beta-galactosidase (Q8VNN2 whole entry): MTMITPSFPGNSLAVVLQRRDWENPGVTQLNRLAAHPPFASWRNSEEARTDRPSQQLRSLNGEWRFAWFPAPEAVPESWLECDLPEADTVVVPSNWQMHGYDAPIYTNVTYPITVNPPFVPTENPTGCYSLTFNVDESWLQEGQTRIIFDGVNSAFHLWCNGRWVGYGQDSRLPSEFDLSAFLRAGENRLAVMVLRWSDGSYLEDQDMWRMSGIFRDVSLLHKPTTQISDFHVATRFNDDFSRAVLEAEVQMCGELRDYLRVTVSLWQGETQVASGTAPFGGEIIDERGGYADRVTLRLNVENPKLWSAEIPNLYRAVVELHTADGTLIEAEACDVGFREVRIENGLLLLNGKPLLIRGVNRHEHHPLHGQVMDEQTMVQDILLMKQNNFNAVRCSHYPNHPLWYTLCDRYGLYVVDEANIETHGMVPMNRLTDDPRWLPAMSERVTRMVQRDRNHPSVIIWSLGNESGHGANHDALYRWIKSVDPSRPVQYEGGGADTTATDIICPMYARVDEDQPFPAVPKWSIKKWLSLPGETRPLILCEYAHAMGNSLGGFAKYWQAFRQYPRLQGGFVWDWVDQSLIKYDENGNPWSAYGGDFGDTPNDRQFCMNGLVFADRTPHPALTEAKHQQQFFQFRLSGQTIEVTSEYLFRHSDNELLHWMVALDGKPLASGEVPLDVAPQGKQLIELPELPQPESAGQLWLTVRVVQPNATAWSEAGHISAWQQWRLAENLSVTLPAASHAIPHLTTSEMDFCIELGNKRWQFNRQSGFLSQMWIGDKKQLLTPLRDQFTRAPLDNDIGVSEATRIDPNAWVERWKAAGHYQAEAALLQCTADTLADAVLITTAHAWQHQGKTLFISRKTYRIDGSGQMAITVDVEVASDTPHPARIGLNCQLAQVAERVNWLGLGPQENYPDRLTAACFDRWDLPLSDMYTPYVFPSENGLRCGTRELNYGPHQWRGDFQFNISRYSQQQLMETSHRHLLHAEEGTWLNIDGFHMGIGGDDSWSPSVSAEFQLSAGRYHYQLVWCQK

[5] = tested on: Vero; experiment: host cell cytotoxicity of antiviral hits, dose response, cytotoxicity control for West Nile virus antiviral project, secondary assay (AID 1650); assay type: functional; conditions: Chlorocebus sabaeus
[6] = C. albicans growth with fluconazole, confirmation, fluorescence, retest (AID 2467); assay type: functional, cell-based
[7] = tested on: HEK293; experiment: cells; assay type: functional, cell-based; conditions: Homo sapiens; remark: listed apart in the source
[8] = target: Nucleotide-binding oligomerization domain-containing protein 2 (Homo sapiens, UniProt Q9HC29); experiment: NOD2 signaling inhibitors, cell-based, luminescence, uHTS, HEK293 (AID 1566); assay type: functional
Chain of Nucleotide-binding oligomerization domain-containing protein 2 (Q9HC29 whole entry, the tested form may be a part): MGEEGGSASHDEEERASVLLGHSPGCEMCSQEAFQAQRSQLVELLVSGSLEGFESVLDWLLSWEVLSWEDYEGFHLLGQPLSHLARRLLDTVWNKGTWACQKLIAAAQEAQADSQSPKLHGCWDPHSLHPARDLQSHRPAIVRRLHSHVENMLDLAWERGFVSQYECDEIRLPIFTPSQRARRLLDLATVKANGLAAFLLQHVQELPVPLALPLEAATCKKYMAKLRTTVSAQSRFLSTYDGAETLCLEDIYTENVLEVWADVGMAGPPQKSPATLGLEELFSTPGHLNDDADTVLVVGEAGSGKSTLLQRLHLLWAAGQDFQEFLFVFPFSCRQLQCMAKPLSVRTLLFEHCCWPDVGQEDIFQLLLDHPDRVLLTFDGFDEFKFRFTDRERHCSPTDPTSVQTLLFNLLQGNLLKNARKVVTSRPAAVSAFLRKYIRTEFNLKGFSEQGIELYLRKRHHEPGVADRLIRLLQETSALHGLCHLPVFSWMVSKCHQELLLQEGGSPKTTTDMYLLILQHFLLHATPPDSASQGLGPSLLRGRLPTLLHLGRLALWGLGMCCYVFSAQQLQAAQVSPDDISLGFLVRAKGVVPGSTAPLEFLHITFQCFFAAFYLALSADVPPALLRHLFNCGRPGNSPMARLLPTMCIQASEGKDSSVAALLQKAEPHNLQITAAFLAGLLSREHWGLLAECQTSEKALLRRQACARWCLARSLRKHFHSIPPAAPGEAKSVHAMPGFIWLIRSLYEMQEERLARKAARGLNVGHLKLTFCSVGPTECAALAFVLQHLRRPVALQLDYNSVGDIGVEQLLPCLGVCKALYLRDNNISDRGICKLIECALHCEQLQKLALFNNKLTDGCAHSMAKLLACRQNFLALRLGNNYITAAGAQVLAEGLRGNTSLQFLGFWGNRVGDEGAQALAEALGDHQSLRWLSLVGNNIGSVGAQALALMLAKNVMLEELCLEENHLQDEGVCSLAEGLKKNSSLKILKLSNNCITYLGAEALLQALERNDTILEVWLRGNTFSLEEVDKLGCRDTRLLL

[9] = tested on: HEK293; experiment: NOD2 signaling inhibitors in MDP-stimulated cells, cell-based, uHTS, luminescence (AID 2001); assay type: functional; conditions: Homo sapiens
[10] = tested on: HEK293; experiment: cells; assay type: functional, cell-based; conditions: Homo sapiens; remark: listed apart in the source
[11] = target: T1, Type-1 angiotensin II receptor (Homo sapiens, UniProt P30556); experiment: AT1 receptor antagonists, dose response, selectivity assay for APJ receptor antagonist project, cell-based, uHTS hits (AID 463214); assay type: functional;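 further: antagonist potency against angiotensin II stimulated AT1 response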
T1 sequence (P30556 whole entry): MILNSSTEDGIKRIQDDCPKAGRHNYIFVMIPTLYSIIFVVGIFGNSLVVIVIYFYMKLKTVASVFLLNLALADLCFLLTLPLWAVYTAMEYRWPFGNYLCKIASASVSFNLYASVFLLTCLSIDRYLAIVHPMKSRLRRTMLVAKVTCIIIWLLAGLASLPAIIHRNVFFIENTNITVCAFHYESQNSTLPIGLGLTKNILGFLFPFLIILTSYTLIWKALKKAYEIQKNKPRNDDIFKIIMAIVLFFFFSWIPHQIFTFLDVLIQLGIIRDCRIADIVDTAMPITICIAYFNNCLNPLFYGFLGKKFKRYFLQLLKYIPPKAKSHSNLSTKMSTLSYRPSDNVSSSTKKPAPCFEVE

[12] = cytotoxicity in HEK-293T cells, dose response, cytotoxicity control for TCR NF-kB inhibitor project, luminescence, T-cell screen hits (AID 489026); assay type: functional, cell-based;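 further: cells exposed to compound about 14 hours before the viability readout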
[13] = tested on: INS1; experiment: beta cell apoptosis inhibitors, cytokine rescue, dose response, luminescence, retest (AID 449756); assay type: functional, cell-based; conditions: Rattus norvegicus;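 further: cell death triggered by IL-1 beta plus TNF-alpha plus IFN-gamma mixture; protective hits raise ATP signal compared with cytokine alone wells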
[14] = target: T2, Carboxy-terminal domain RNA polymerase II polypeptide A small phosphatase 1 (Homo sapiens, UniProt Q9GZU7); experiment: inhibitors of CTDSP1, concentration-response testing, biochemical assay, absorbance-based, actives from ultra-high-throughput screening (AID 540297); assay type: functional
T2 sequence (Q9GZU7 whole entry): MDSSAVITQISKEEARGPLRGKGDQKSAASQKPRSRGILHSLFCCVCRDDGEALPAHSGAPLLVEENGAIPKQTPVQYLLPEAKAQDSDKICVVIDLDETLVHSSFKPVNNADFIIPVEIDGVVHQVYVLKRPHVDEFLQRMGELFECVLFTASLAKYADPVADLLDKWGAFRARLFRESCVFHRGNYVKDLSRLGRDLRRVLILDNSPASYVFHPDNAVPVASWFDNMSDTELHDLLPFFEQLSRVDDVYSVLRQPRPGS

[15] = target: T3, Fatty acid synthase (Homo sapiens, UniProt P49327); experiment: FAS thioesterase domain inhibitors, dose response, biochemical, endpoint fluorescence intensity, uHTS hits (AID 624327); assay type: functional;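 further: fluorescence from hydrolysis of an O-methyl fluorescein acyl ester substrate by the enzyme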
T3 sequence (P49327 whole entry, the tested form may be a part): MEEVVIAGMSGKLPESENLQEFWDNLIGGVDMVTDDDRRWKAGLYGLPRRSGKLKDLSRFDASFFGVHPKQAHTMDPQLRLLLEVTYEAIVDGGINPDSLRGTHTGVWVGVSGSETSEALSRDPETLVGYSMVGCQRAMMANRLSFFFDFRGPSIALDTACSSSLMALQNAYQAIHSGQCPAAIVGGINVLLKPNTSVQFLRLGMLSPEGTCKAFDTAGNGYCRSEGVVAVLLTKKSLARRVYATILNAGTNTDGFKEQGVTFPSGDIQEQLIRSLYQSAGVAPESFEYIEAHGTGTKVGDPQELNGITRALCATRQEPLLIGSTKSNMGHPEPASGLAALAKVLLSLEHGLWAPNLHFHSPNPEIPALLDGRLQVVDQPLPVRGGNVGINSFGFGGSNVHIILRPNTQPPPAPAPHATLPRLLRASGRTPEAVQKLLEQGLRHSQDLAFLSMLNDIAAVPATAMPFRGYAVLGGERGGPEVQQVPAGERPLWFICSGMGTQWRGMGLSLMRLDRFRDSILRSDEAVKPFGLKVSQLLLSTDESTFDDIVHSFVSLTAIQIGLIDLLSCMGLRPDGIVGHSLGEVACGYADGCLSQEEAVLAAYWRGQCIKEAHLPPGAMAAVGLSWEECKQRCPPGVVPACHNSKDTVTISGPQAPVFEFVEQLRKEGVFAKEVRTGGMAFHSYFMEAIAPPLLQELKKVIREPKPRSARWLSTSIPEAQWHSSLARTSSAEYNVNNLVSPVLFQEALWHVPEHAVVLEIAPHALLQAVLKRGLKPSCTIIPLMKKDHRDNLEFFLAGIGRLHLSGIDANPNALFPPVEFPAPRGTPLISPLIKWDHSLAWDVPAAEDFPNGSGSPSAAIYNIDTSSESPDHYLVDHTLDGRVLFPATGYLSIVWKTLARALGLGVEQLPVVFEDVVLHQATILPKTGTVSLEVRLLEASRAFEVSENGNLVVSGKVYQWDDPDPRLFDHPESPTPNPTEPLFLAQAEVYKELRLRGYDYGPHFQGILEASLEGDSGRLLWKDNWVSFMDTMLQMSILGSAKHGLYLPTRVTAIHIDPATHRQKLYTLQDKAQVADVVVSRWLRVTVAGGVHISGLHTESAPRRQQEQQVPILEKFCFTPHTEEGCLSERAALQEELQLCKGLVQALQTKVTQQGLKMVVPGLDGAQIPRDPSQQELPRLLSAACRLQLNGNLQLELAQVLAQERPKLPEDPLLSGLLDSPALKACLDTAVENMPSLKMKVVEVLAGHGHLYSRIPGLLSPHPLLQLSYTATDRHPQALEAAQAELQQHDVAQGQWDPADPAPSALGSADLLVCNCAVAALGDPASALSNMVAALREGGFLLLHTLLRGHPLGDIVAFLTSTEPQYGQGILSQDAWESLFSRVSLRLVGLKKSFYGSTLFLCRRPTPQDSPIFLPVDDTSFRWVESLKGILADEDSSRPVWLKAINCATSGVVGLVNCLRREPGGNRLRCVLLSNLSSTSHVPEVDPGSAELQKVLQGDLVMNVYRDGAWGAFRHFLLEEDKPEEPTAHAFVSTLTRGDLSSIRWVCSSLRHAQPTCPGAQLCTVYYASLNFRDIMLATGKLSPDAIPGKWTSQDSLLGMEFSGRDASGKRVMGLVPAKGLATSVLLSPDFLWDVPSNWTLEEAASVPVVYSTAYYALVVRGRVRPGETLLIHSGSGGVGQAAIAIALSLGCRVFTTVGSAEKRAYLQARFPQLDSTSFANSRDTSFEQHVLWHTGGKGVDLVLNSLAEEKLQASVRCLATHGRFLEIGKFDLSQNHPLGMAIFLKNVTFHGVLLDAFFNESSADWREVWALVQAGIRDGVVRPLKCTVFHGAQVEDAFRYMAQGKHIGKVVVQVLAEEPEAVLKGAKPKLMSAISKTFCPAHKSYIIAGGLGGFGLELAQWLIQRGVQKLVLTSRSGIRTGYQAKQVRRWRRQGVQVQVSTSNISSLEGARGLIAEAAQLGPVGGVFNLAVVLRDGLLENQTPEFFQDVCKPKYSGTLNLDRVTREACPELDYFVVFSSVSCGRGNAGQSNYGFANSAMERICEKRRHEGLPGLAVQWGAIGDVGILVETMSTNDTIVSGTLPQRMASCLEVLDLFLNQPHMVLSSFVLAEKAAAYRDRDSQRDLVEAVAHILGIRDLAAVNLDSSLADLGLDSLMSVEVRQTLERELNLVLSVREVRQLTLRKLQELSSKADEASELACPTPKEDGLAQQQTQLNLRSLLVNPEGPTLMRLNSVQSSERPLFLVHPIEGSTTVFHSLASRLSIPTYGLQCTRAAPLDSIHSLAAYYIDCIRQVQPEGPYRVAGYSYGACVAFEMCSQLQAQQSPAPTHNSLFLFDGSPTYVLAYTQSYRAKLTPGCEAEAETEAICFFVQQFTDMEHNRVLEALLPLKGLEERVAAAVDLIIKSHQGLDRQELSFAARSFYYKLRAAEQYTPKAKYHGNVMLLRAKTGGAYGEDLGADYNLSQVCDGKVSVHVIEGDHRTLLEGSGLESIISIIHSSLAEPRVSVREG

[16] = target: T3, Fatty acid synthase; experiment: FAS thioesterase domain inhibitors, dose response, biochemical, kinetic fluorescence intensity (AID 624326); assay type: functional;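 further: rate of fluorescence rise from hydrolysis of a fluorogenic O-methyl fluorescein ester substrate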

Structure (SMILES) | EC50 [1] | EC50 [2] | IC50 [3] | EC50 [4] | CC50 [5] | EC50 [6] | IC50 [7] | EC50 [8] | IC50 [9] | IC50 [10] | IC50 [11] | IC50 [12] | AC50 [13] | IC50 [14] | IC50 [15] | IC50 [16]
Cc1ccc(C)c(N=Nc2ccc(O)c3ncccc23)c1 | 17 µM (active) | 4.12 µM (active) | 1.89 µM (active) | > 40 µM (inactive) | 6.64 µM (active) | 1.57 µM (active) | > 20 µM (inactive) | > 20 µM (inactive) | 3 µM (active) | > 20 µM (inactive) | 9.84 µM (active) | > 80 µM (inactive) | 1.29 µM (active) |  |  | 
O=C(CCCC(=O)Nc1cccc(Br)c1)N/N=C/c1cc([N+](=O)[O-])ccc1O |  |  |  | > 40 µM (inactive) |  |  |  |  |  |  | > 40 µM (not active) |  |  | 6.26 µM (active) | 10 µM (active) | 7.42 µM (active)

Reference: ChEMBL document CHEMBL1201862, “PubChem BioAssay data set” (2004)
